Source: patent US20030129262A1, “Methionine restriction for cancer therapy” (priority 2001, published 2003)
Where a name gives a salt, the structure may show the parent alone. Starred links: 1 amine or outer side, 2 acyl side, 3 side chain; linkers in the order of their positions; H or OH if unused. Positions of bridges follow the written chain, without caps; N, C: chain ends. Non-standard residues stand in square brackets, D forms with d. Residues, ends and D or L forms follow the SMILES beside them. Chains are numbered I, II in the order given. Actinocin(9to1) = Cc1c2oc3c(C)ccc(C(=O)[*:1])c3nc-2c(C(=O)[*:2])c(N)c1=O; NMeV = CN[C@H](C(=O)O)C(C)C; Sar = CNCC(=O)O

What was measured:
[1] = system: PC-3 cells; assay: HPLC analysis of nucleotide levels; type: cell-based, Human; settings: positive control for TS inhibition
Procedure: Cells were washed with phosphate buffered saline (PBS), trypsinized, washed again with PBS, counted, and pelleted. 5×10^5 cells from each sample were mixed with 10 μL 0.6 M trichloroacetic acid. The lysate was incubated at 4° C. for 30 minutes. After centrifugation, the acidic supernatant was transferred to a microcentrifuge tube. An equal volume of ice cold 80% 1,1,2-trichlorotrifluoroethane and 20% tri-n-octylamine was added to the lysate. The mixture was vortexed for 15 seconds and then centrifuged at 14000 g at 4° C. for 5 minutes. The aqueous supernatant was removed and centrifuged at 14000 g at 4° C. for 5 minutes. Samples were stored at −70° C. until use.used.
Clromatographic analyses were performed with a Waters 625 LC System (Waters Corporation, Milford, Mass., USA) consisting of a Waters 625 Fluid Handling Unit with a Rheodyne 9125-080 Manual Injector and 20 μL sample loop, 625E Powerline Controller, and 484 Tunable UV Detector. […]
A series of standards containing varying amounts of dUMP and dTTP ranging from […] was analyzed using the above methodology. The different quantities and their correlating absorption areas existed in a linear relationship. […] This linear equation was used to calculate the quantity of dUMP or dTTP represented by the absorption peaks in the chromatograms generated from our experimental samples.

[2] = system: thymidylate synthase; assay: Western blot of TS protein in PC3 cells; type: cell-based, Human
Procedure: (§1) Human prostate cancer PC3 cells (American Type Culture Collection, Rockville, Md.) were maintained in RPMI-1640 (Life Technologies, Inc., Gaithersburg, Md.) supplemented with 10% FBS (HyClone Laboratories, Logan, Utah) at 37° C. in 5% CO2. Methionine restriction experiments were performed in methionine-free RPMI-1640 (Life Technologies, Inc.) supplemented with 10% FBS and 100 μM Homocysteine (Sigma, St. Louis). Folate restriction experiments were performed in folate-free RPMI-1640 medium (Life Technologies, Inc.) supplemented with 10% FBS. Primary culture prostate epithelial cells (PrEC) were purchased from BioWhittaker, Inc. and Clonetics Products (Walkersville, Md.). PrEC was maintained in the prostate epithelial basal medium and methionine restriction was performed in prostate epithelial cell labeling medium without methionine supplemented with 100 μM homocysteine, which were obtained from the company.
Aliquots of samples with 50 μg of protein, determined by the Bradford assay (BioRad, Hercules, Calif.), were mixed with loading buffer (final concentrations of 62.5 mM Tris-HCl (pH 6.8), 2.3% SDS, 100 mM dithiothreitol, and 0.005% bromophenol blue), boiled, fractionated in a 10% SDS-PAGE, and transferred onto a 0.45-μm nitrocellulose membrane by electroblotting (BioRad). […]

[3] = system: thymidylate synthase; assay: Thymidylate synthase (TS) assay in PC-3 cells; type: cell-based, Human; settings: PC3 cells, within 8 hours
Procedure: as §1
TS assay was performed as previously described (24). Briefly, 25 μl of cell extract containing 50 μg protein, 5 μl 6.5 mM 5,10-CH2-THF, and 10 μl of Tris.HCl buffer were combined at room temperature. […] After centrifugation, 150 μl of the supernatant were counted by liquid scintillation. […]

[4] = cited from earlier work
[5] = system: GBM at recurrence; settings: single agent, cited from earlier work
[6] = system: Yoshida sarcoma; settings: coadministered with methionine depleted diet, 1.0 mg/kg/day on days 2, 4, 6; cited from earlier work
[7] = system: multiple myeloma; settings: oral administration; cited from earlier work
[8] = system: human breast carcinoma (MX-t) cell line; settings: combined with methionine depletion; cited from earlier work
[9] = system: Hela cells; assay: Western blot of caspases, BID, Bcl-2, Hela
[10] = system: PC-3 cells; assay: Western blot of caspases, BID, Bcl-2, PC-3; type: cell-based, Human
[11] = system: Hodgkin's Disease and testicular tumors; settings: in vivo; cited from earlier work

Question: For `O=c1[nH]cc(F)c(=O)[nH]1` [5-FU, 5-fluorouracil], which dUMP/dTTP ratio [1] is on record?
Answer: dramatic increase

Question: What about the “TS protein accumulation in response to 5-FU” value ([2]; concurrent methionine restriction) of the same compound?
Answer: largely abrogated

Question: And the TS protein level ([2]; western blot)?
Answer: dramatically increased

Question: And the “inhibition of TS activity” value [3]?
Answer: 95%

Question: With `Cc1c2oc3c(C)ccc(C(=O)N[C@@H]4C(=O)N[C@H](C(C)C)C(=O)N5CCC[C@H]5C(=O)N(C)CC(=O)N(C)[C@@H](C(C)C)C(=O)O[C@@H]4C)c3nc-2c(C(=O)N[C@@H]2C(=O)N[C@H](C(C)C)C(=O)N3CCC[C@H]3C(=O)N(C)CC(=O)N(C)[C@@H](C(C)C)C(=O)O[C@@H]2C)c(N)c1=O` [Actinomycin D] (I: T[dV]P[Sar][NMeV] / II: T[dV]P[Sar][NMeV]; ester I:1-I:C, II:1-II:C; linker I:N-II:N via Actinocin(9to1)) as the compound, how does the “fraction of the dose excreted intact into the bile” value ([4]; in vivo) read?
Answer: Half

Question: Which results are given for `O=NN(CCCl)C(=O)NCCCl` [Carmustine, 1,3bis (2-chloroethyl)-1-nitrosourea]?
Answer: Response rate (responders plus stable disease) ([5]; Berger et al., 1996): 29%; median time to progression [5]: 22 weeks

Question: For `COc1cccc2c1C(=O)c1c(O)c3c(c(O)c1C2=O)C[C@@](O)(C(=O)CO)C[C@@H]3O[C@H]1C[C@H](N)[C@H](O)[C@H](C)O1` [Doxorubicin, 5,12-Naphthacenedione, (8s-cis)-10-[(3-amino-2,3,6-trideoxy-a-L-lyxo-hexopyranosyl)oxy]-7,8,9,10-tetrahydro-6,8,11-trihydroxy-8-(hydroxyacetyl)-1-methoxy-hydrochloride], which “effectiveness (reduced tumor weight, increased survivability)” value [6] is on record?
Answer: enhanced effectiveness

Question: With `O=NN(CCCl)C(=O)NC1CCCCC1` [Lomustine, 1-(2-chloro-ethyl)-3-cyclohexyl-1 nitrosourea] as the compound, how does the “fraction of radioactivity excreted as degradation products” value ([4]; oral, 30 mg/m^2 to 100 mg/m^2, within 24 hours) read?
Answer: about half

Question: For `N[C@@H](Cc1ccc(N(CCCl)CCCl)cc1)C(=O)O` [Melphalan, 4-[bis(2-chloroethyl)amino]-L-phenylalanine], which “fraction of patients with favorable response” value [7] is on record?
Answer: one third to one half

Question: With `N.N.[Cl][Pt][Cl]` [cisplatin, Cisplatin] as the compound, how does the “Treated tumor growth, % of growth in control mice tumors” value [8] read?
Answer: 32%

Question: For `CN[C@@H]1C[C@H]2O[C@@](C)([C@@H]1OC)n1c3ccccc3c3c4c(c5c6ccccc6n2c5c31)C(=O)NC4` [staurosporine], which “active (cleaved) form of caspases by western blot” value [9] is on record?
Answer: detectable

Question: For `CC(=O)O[C@H]1C(=O)[C@@]2(C)[C@H]([C@H](OC(=O)c3ccccc3)[C@]3(O)C[C@H](OC(=O)[C@H](O)[C@@H](NC(=O)c4ccccc4)c4ccccc4)C(C)=C1C3(C)C)[C@]1(OC(C)=O)CO[C@@H]1C[C@@H]2O` [taxol, Taxol], which “Bcl-2 phosphorylation (upward shift on western blot)” value [9] is on record?
Answer: phosphorylated

Question: What about the “Bcl-2 phosphorylation (upward shift on western blot)” value [10] of the same compound?
Answer: phosphorylated

Question: Which “time until improvement is noted” value [11] does the source give for Bleomycin here?
Answer: ≤ 2 weeks
